Species on record: Rattus norvegicus
Experiment: Toxicity in rat assessed as concentration required for producing T/C of 140
Format: organism-based
Conditions: in vivo

Compound	log(1/C)
CN(C)/N=N/c1ccccc1	2.54
Cc1ccc(/N=N/N(C)C)cc1	2.62
CN(C)/N=N/c1ccc([N+](=O)[O-])cc1	2.06
COc1ccc(/N=N/N(C)C)cc1	2.72
CN(C)/N=N/c1ccc(I)cc1	2.68
CN(C)/N=N/c1ccc(Br)cc1	2.73
CN(C)/N=N/c1ccc(F)cc1	2.71
CN(C)/N=N/c1ccc(Cl)cc1	2.71

Species on record: Mus musculus
Experiment: Toxicity in mouse assessed as concentration required for producing T/C of 140
Format: organism-based
Conditions: in vivo

Compound	log(1/C)
CCN(CC)/N=N/c1[nH]cnc1C(N)=O	2.75
CCCN(CCC)/N=N/c1[nH]cnc1C(N)=O	2.7
CCCCN(CCCC)/N=N/c1[nH]cnc1C(N)=O	2.91
CCCCCN(CCCCC)/N=N/c1[nH]cnc1C(N)=O	3.49
CN(C)/N=N/c1[nH]cnc1C(N)=O [DACARBAZINE]	2.44

Species on record: Mus musculus
Experiment: Toxicity in CDF1 mouse assessed as concentration required for producing T/C of 140
Format: organism-based
Conditions: in vivo

Compound	log(1/C)
CCCCN(C)/N=N/c1ccc(C(N)=O)cc1	3.46
CCCCCCCCN(C)/N=N/c1ccc(C(N)=O)cc1	2.8
CN(C)/N=N/c1ccccc1	3.43
CN(C)/N=N/c1ccc(S(N)(=O)=O)cc1	3.2
CN(C)/N=N/c1ccc(C(F)(F)F)cc1	3.05
CN(C)/N=N/c1ccc(C#N)cc1	3.2
CN(C)/N=N/c1ccc(NC(N)=O)cc1	3.68
Cc1ccc(/N=N/N(C)C)cc1	3.26
COc1ccc(/N=N/N(C)C)cc1	3.55
CCN(C)/N=N/c1ccc(C(N)=O)cc1	3.24
CN(C)/N=N/c1ccc(C(N)=O)cc1	3.32
CN(C)/N=N/c1[nH]cnc1C(N)=O [DACARBAZINE]	2.68

Test system: not listed separately
Experiment: Half life of the compound at pH 7.4 at 37 degC in presence of serum
Format: physicochemical
Conditions: not given

Compound	half-life
C/N=N/Nc1ccccc1	6 min

Test system: L1210
Experiment: Antitumor activity against mouse L1210 cells allografted in mouse assessed as survival rate at 100 mg/kg relative to control
Format: functional
Conditions: not given

Compound	T/C
CCN(CC)/N=N/c1[nH]cnc1C(N)=O	127%

Test system: L1210
Experiment: Antitumor activity against mouse L1210 cells allografted in mouse assessed as survival rate at 200 mg/kg relative to control
Format: functional
Conditions: not given

Compound	T/C
CCCCN(CC)/N=N/c1[nH]cnc1C(N)=O	124%
CCN(CC)/N=N/c1n[nH]cc1C(N)=O	144%

Test system: L1210
Experiment: Antitumor activity against mouse L1210 cells allografted in mouse assessed as survival rate at 265 mg/kg relative to control
Format: functional
Conditions: not given

Compound	T/C
CCCN(CCC)/N=N/c1c(C)n[nH]c1C(=O)OC	131%

Test system: L1210
Experiment: Antitumor activity against mouse L1210 cells allografted in mouse assessed as survival rate at 32 mg/kg relative to control
Format: functional
Conditions: not given

Compound	T/C
CCCCN(CCCC)/N=N/c1cc(=O)[nH]c(=O)[nH]1	145%

Test system: L1210
Experiment: Antitumor activity against mouse L1210 cells allografted in mouse assessed as survival rate at 250 mg/kg relative to control
Format: functional
Conditions: not given

Compound	T/C
NC(=O)c1nc[nH]c1/N=N/N1CCCC1	126%

Test system: L1210
Experiment: Antitumor activity against mouse L1210 cells allografted in mouse assessed as survival rate at 20 mg/kg relative to control
Format: functional
Conditions: not given

Compound	T/C
Cc1n[nH]c(C)c1/N=N/N1CCOCC1	124%

Test system: L1210
Experiment: Antitumor activity against mouse L1210 cells allografted in mouse assessed as survival rate at 450 mg/kg relative to control
Format: functional
Conditions: not given

Compound	T/C
CCN(CC)/N=N/c1ccc[n+]([O-])c1	141%

Reference: ChEMBL document CHEMBL3272148, “Antitumor 1-(X-aryl)-3,3-dialkyltriazenes. 2. On the role of correlation analysis in decision making in drug modification. Toxicity quantitative structure-activity relationships of 1-(X-phenyl)-3,3-dialkyltriazenes in mice” (J Med Chem, 1978)
